Laboratory results: patent publication US20220175768A1, “FGFR TYROSINE KINASE INHIBITORS FOR THE TREATMENT OF UROTHELIAL CARCINOMA” (Janssen Pharmaceutica NV, priority 2019, published 2022)

[1] = 10 mg intermittent, regimen 1 (n = 33)

Protocol: Study treatment was administered on 28-day cycles. Prior to interim analysis 1, there were 2 treatment regimens. Patients were randomized 1:1 to 28-day cycles to the following 2 regimens until a regimen was selected for further study: Regimen 1 (10 mg once daily intermittent (7 days on/7 days); Regimen 2 (6 mg once daily continuous). Randomization was stratified according to performance status (0 to 1 vs. 2), hemoglobin value (<10 vs. ≥10 g per dl), FGFR alteration type (mutation vs. fusion), prior treatment status (chemotherapy-resistant vs. chemotherapy naïve), and disease distribution (presence or absence of visceral [liver, lung, bone] metastases). Starting dose selection was based on phase 1 efficacy and tolerability.
Thus, after interim analysis, this became a single-arm study. […] Treatment continued until disease progression or unacceptable adverse event(s) per investigator.
All objective responses required confirmation by an additional investigator assessment within 4 to 6 weeks of first assessment. Disease evaluations for regimen 3 were also performed by an independent radiographic review committee. […] Safety was evaluated based on clinical laboratory tests, physical exams, electrocardiograms, and ophthalmology examinations. Adverse events and abnormalities were assessed by investigator and graded per NCI CTCAE v.4.0
Prophylactic measures were taken to minimize risk of common adverse events related to FGFR inhibition. To reduce risk of hyperphosphatemia, a low-phosphate diet was recommended for all patients (600 to 800 mg of dietary phosphate intake per day). To reduce the risk of skin effects, the application of alcohol-free emollient moisturizing cream and avoidance of unnecessary exposure to sunlight, soap, perfumed products, and hot baths was recommended. Patients were asked to keep their fingers and toes clean and nails trimmed to reduce risk of nail effects.
Additional ophthalmology examinations were performed if clinically indicated.

COc1cc(OC)cc(N(CCNC(C)C)c2ccc3ncc(-c4cnn(C)c4)nc3c2)c1 [erdafitinib, N-(3,5-dimethoxy-phenyl)-N′-(1-methylethyl)-N-[3-(1-methyl-1H-pyrazol-4-yl)quinoxalin-6-yl]ethane-1,2-diamine]
0 no. (%): Patients with Hematuria, Grade ≥3 [1] | Patients with Hyperphosphatemia, Grade ≥3 [1] | Patients with Hypomagnesemia, Grade 2 [1] | Patients with Hypomagnesemia, Grade ≥3 [1] | Patients with Hyponatremia, Grade 1 [1] | Patients with Hyponatremia, Grade 2 [1] | Patients with Insomnia, Grade 1 [1] | Patients with Insomnia, Grade ≥3 [1] | Patients with Lacrimation increased, Grade ≥3 [1] | Patients with Nail dystrophy, Grade 2 [1] | Patients with Nail dystrophy, Grade ≥3 [1] | Patients with Nausea, Grade ≥3 [1] | Patients with Onychomadesis, Grade 2 [1] | Patients with Onychomadesis, Grade ≥3 [1] | Patients with Oropharyngeal pain, Any grade [1] | Patients with Oropharyngeal pain, Grade 1 [1] | Patients with Oropharyngeal pain, Grade 2 [1] | Patients with Oropharyngeal pain, Grade ≥3 [1] | Patients with Paronychia, Grade 1 [1] | Patients with Paronychia, Grade ≥3 [1] | Patients with Peripheral edema, Grade ≥3 [1] | Patients with Pyrexia, Grade 2 [1] | Patients with Pyrexia, Grade ≥3 [1] | Patients with Retinal detachment, Grade ≥3 [1] | Patients with Urinary tract infection, Grade 1 [1] | Patients with Vision blurred, Grade ≥3 [1] | Patients with Vomiting, Grade ≥3 [1] | Patients with Weight decreased, Grade ≥3 [1] | Treatment-related adverse event: Alopecia, Grade ≥3 [1] | Treatment-related adverse event: Conjunctivitis, Grade ≥3 [1] | Treatment-related adverse event: Decreased appetite, Grade ≥3 [1] | Treatment-related adverse event: Dry mouth, Grade ≥3 [1] | Treatment-related adverse event: Dry skin, Grade ≥3 [1] | Treatment-related adverse event: Dysgeusia, Grade ≥3 [1] | Treatment-related adverse event: Fatigue, Grade ≥3 [1] | Treatment-related adverse event: Hand-foot syndrome, Grade 1 [1] | Treatment-related adverse event: Hand-foot syndrome, Grade ≥3 [1] | Treatment-related adverse event: Hyperphosphatemia, Grade ≥3 [1] | Treatment-related adverse event: Lacrimation increased, Grade 2 [1] | Treatment-related adverse event: Lacrimation increased, Grade ≥3 [1] | Treatment-related adverse event: Nausea, Grade ≥3 [1] | Treatment-related adverse event: Onychomadesis, Grade 2 [1] | Treatment-related adverse event: Onychomadesis, Grade ≥3 [1] | Treatment-related adverse event: Paronychia, Grade 1 [1] | Treatment-related adverse event: Paronychia, Grade ≥3 [1] | Treatment-related adverse event: Retinal detachment, Grade ≥3 [1] | Treatment-related adverse event: Vision blurred, Grade ≥3 [1]
Seventy-six: Central serious retinopathy events resolved (all unresolved events were grade 1 or 2)
77%: Hyperphosphatemia reported (Regimen 3)
56%: Patients who required dose reduction (Regimen 3)
16 (49) no. (%): Treatment-related adverse event: Stomatitis, Any grade [1]
16%: Stomatitis leading to dose reduction (Regimen 3)
7 (21) no. (%): Patients with Onycholysis, Any grade [1] | Patients with Vomiting, Grade 1 [1] | Treatment-related adverse event: Diarrhea, Grade 1 [1] | Treatment-related adverse event: Dry skin, Grade 1 [1] | Treatment-related adverse event: Dysgeusia, Grade 1 [1]
13%: Patients discontinued due to treatment-emergent adverse events (Regimen 3)
13 (39) no. (%): Treatment-related adverse event: Diarrhea, Any grade [1] | Treatment-related adverse event: Dry mouth, Grade 1 [1]
15 (46) no. (%): Patients with Hyperphosphatemia, Grade 1 [1] | Treatment-related adverse event: Hyperphosphatemia, Any grade [1]
10 (30) no. (%): Treatment-related adverse event: Dysgeusia, Any grade [1]
3 (9) no. (%): Patients with Insomnia, Any grade [1] | Patients with Insomnia, Grade 2 [1] | Patients with Nausea, Grade 1 [1] | Patients with Onycholysis, Grade 1 [1] | Patients with Onycholysis, Grade 2 [1] | Patients with Pain in extremity, Grade 1 [1] | Patients with Weight decreased, Any grade [1] | Treatment-related adverse event: Alopecia, Any grade [1] | Treatment-related adverse event: Conjunctivitis, Grade 1 [1] | Treatment-related adverse event: Dysgeusia, Grade 2 [1] | Treatment-related adverse event: Nausea, Grade 1 [1] | Treatment-related adverse event: Onycholysis, Grade 2 [1]
4 (12) no. (%): Patients with Peripheral edema, Grade 2 [1] | Patients with Urinary tract infection, Any grade [1] | Patients with Vision blurred, Grade 1 [1] | Treatment-related adverse event: Conjunctivitis, Any grade [1] | Treatment-related adverse event: Decreased appetite, Grade 2 [1] | Treatment-related adverse event: Fatigue, Any grade [1] | Treatment-related adverse event: Lacrimation increased, Any grade [1] | Treatment-related adverse event: Lacrimation increased, Grade 1 [1] | Treatment-related adverse event: Vision blurred, Grade 1 [1]
14 (42) no. (%): Treatment-related adverse event: Dry mouth, Any grade [1] | Treatment-related adverse event: Hyperphosphatemia, Grade 1 [1]
67%: Treatment-emergent adverse events grade 3 or 4 (Regimen 3)
6 weeks: Time of peak phosphate elevation after erdafitinib initiation (normalized by cycle 5)
2 (6) no. (%): Patients with Hypomagnesemia, Any grade [1] | Patients with Hypomagnesemia, Grade 1 [1] | Patients with Hyponatremia, Any grade [1] | Patients with Hyponatremia, Grade ≥3 [1] | Patients with Nail dystrophy, Any grade [1] | Patients with Nail dystrophy, Grade 1 [1] | Patients with Nausea, Grade 2 [1] | Patients with Paronychia, Any grade [1] | Patients with Paronychia, Grade 2 [1] | Patients with Retinal detachment, Any grade [1] | Patients with Urinary tract infection, Grade 2 [1] | Patients with Urinary tract infection, Grade ≥3 [1] | Patients with Vomiting, Grade 2 [1] | Patients with Weight decreased, Grade 2 [1] | Treatment-related adverse event: Alopecia, Grade 2 [1] | Treatment-related adverse event: Asthenia, Grade 1 [1] | Treatment-related adverse event: Asthenia, Grade 2 [1] | Treatment-related adverse event: Asthenia, Grade ≥3 [1] | Treatment-related adverse event: Decreased appetite, Grade 1 [1] | Treatment-related adverse event: Fatigue, Grade 1 [1] | Treatment-related adverse event: Fatigue, Grade 2 [1] | Treatment-related adverse event: Hand-foot syndrome, Any grade [1] | Treatment-related adverse event: Hand-foot syndrome, Grade 2 [1] | Treatment-related adverse event: Nausea, Grade 2 [1] | Treatment-related adverse event: Onycholysis, Grade 1 [1] | Treatment-related adverse event: Paronychia, Any grade [1] | Treatment-related adverse event: Paronychia, Grade 2 [1] | Treatment-related adverse event: Retinal detachment, Any grade [1]
6 (18) no. (%): Patients with Lacrimation increased, Any grade [1] | Patients with Stomatitis, Grade 2 [1] | Treatment-related adverse event: Asthenia, Any grade [1] | Treatment-related adverse event: Decreased appetite, Any grade [1] | Treatment-related adverse event: Onycholysis, Any grade [1] | Treatment-related adverse event: Stomatitis, Grade 2 [1]
8 (24) no. (%): Treatment-related adverse event: Dry skin, Any grade [1]
84%: Patients with grade 1 or 2 events among patients with eye disorders (patients with eye disorders (n=62))
16 (48) no. (%): Patients with Hyperphosphatemia, Any grade [1] | Patients with Stomatitis, Any grade [1]
59%: Patients who required ≥1 dose reduction (41 patients of the 8 mg regimen uptitrated to 9 mg per day)
5 (15) no. (%): Patients with Lacrimation increased, Grade 1 [1] | Patients with Nausea, Any grade [1] | Patients with Pain in extremity, Any grade [1] | Patients with Peripheral edema, Any grade [1] | Patients with Pyrexia, Any grade [1] | Patients with Pyrexia, Grade 1 [1] | Patients with Vision blurred, Any grade [1] | Treatment-related adverse event: Diarrhea, Grade 2 [1] | Treatment-related adverse event: Nausea, Any grade [1] | Treatment-related adverse event: Vision blurred, Any grade [1]
66%: Patients with grade ≥3 treatment-emergent adverse events (overall trial population)
23%: Hyperphosphatemia managed by dose interruption (in vivo)
1 (3) no. (%): Patients with Hyperphosphatemia, Grade 2 [1] | Patients with Lacrimation increased, Grade 2 [1] | Patients with Onycholysis, Grade ≥3 [1] | Patients with Onychomadesis, Any grade [1] | Patients with Onychomadesis, Grade 1 [1] | Patients with Pain in extremity, Grade 2 [1] | Patients with Pain in extremity, Grade ≥3 [1] | Patients with Peripheral edema, Grade 1 [1] | Patients with Retinal detachment, Grade 1 [1] | Patients with Retinal detachment, Grade 2 [1] | Patients with Stomatitis, Grade ≥3 [1] | Patients with Vision blurred, Grade 2 [1] | Patients with Weight decreased, Grade 1 [1] | Treatment-related adverse event: Alopecia, Grade 1 [1] | Treatment-related adverse event: Conjunctivitis, Grade 2 [1] | Treatment-related adverse event: Diarrhea, Grade ≥3 [1] | Treatment-related adverse event: Dry mouth, Grade 2 [1] | Treatment-related adverse event: Dry skin, Grade 2 [1] | Treatment-related adverse event: Hyperphosphatemia, Grade 2 [1] | Treatment-related adverse event: Onycholysis, Grade ≥3 [1] | Treatment-related adverse event: Onychomadesis, Any grade [1] | Treatment-related adverse event: Onychomadesis, Grade 1 [1] | Treatment-related adverse event: Retinal detachment, Grade 1 [1] | Treatment-related adverse event: Retinal detachment, Grade 2 [1] | Treatment-related adverse event: Stomatitis, Grade ≥3 [1] | Treatment-related adverse event: Vision blurred, Grade 2 [1]
0 no.: Serious treatment-emergent adverse event: Nervous system disorders [1] | Serious treatment-emergent adverse event: Urinary tract infection [1] | Serious treatment-emergent adverse event: Urosepsis [1]
9 (27) no. (%): Patients with Stomatitis, Grade 1 [1] | Patients with Vomiting, Any grade [1] | Treatment-related adverse event: Stomatitis, Grade 1 [1]
9%: Hyperphosphatemia leading to dose reduction (Regimen 3)
